Source: PubChem BioAssay AID623941 (Vanderbilt Specialized Chemistry Center, 2012)
Active and inactive are the calls of the source.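 Rule for the calls: active = response rises or falls steadily with concentration, forming a dose-response curve as judged by the submitting lab; inactive = the rest.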

Biological target: Muscarinic acetylcholine receptor M2 (Rattus norvegicus) (UniProt P10980)
Assay: off-target potentiation of rat M2 ACh response – CHO cells, Gqi5 chimera, calcium, ACh EC20, selectivity assay for M4 PAM optimization project, SAR follow-up (AID 623941)
Conditions: CHO rM2/Gqi5 calcium fluorescence

Muscarinic acetylcholine receptor M2 (Rattus norvegicus), sequence (P10980 whole entry, looked up): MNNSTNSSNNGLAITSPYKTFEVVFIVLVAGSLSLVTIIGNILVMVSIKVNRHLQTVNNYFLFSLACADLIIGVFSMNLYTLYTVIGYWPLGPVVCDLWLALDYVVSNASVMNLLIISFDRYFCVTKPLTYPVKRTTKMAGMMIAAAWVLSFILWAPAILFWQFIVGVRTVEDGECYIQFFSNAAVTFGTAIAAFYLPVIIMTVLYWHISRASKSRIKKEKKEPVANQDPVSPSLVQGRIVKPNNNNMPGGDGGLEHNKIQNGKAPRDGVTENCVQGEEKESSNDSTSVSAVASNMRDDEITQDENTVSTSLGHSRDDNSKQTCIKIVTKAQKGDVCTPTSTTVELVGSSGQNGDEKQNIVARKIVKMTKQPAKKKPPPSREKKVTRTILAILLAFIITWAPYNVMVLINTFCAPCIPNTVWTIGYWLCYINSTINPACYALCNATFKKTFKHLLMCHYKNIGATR

| EC50 | outcome | Compound |
| --- | --- | --- |
| 640 nM |  | Cc1nc2sc(C(=O)NC3CC3)c(N)c2c(C)c1Cl |
|  | inactive | Cc1nc2sc(C(=O)NCc3ccncc3)c(N)c2c(C)c1Cl |
|  | inactive | Cc1nc2sc(C(=O)NCc3ccccc3)c(N)c2c(C)c1Cl |
|  | inactive | Cc1nc2sc(C(=O)NCc3ccc4c(c3)OCO4)c(N)c2c(C)c1Cl |
|  | inactive | Cc1nc2sc(C(=O)NCc3cccnc3)c(N)c2c(C)c1Cl |

Same assay, conditions: CHO rM2/Gqi5 calcium fluorescence, at 30 µM (top of the series)

| % ACh max response | Compound |
| --- | --- |
| inactive | Cc1nc2sc(C(=O)NCCc3ccncc3)c(N)c2c(C)c1Cl |
| inactive | Cc1nc2sc(C(=O)NCc3cccc(F)c3F)c(N)c2c(C)c1Cl |
| inactive | COc1ccc(C)c2sc(NC(=O)c3ccncc3)nc12 |
| inactive | Cc1nc2sc(C(=O)NCc3nccs3)c(N)c2c(C)c1Cl |
| inactive | Cc1nc2sc(C(=O)NCc3ccncn3)c(N)c2c(C)c1Cl |
